Data reported in patent publication US8759535B2, “Substituted fused imidazole derivatives, pharmaceutical compositions, and methods of use thereof” (High Point Pharmaceuticals, LLC, priority 2010, dated 2014).
Counter-ions that a name gives are not always drawn.

What follows are molecules tested on HMOX1 (assay: HMOX1 Protein Assay (immunostaining of HO-1 in NHLF cells, GE InCell 1000)). Conditions: Homo sapiens, fold change above DMSO treated cells, 5 μM compound, 16 h.
Format: cell-based
Method in brief: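 Fold induction of HO-1 over vehicle, normally at 5 μM compound (asterisk marks 3 μM), in 0.8% DMSO medium. Normal human lung fibroblasts were treated 16 h, then paraformaldehyde-fixed, anti-HO-1/Alexa 488 stained with Hoechst, and read by high-content imaging.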

| Structure (SMILES) | fold induction at 5 µM |
| --- | --- |
| COC(=O)c1ccc2c(c1)nc(Nc1nc3ccc(SC(F)(F)F)cc3s1)n2C [Example 132, 1-Methyl-2-(6-trifluoromethylsulfanyl-benzothiazol-2-ylamino)-1H-benzoimidazole-5-carboxylic acid methyl ester] | 5.8 |
| CN(C)C(=O)CNC(=O)c1ccc2c(c1)nc(Nc1nc3ccc(Cl)cc3s1)n2C [Example 133, 2-(6-Chloro-benzothiazol-2-ylamino)-1-methyl-1H-benzimidazole-5-carboxylic acid dimethylcarbamoylmethyl-amide] | 45.9 |
| CN(C)C(=O)CNC(=O)c1ccc2c(c1)nc(Nc1nc3ccc(C(F)(F)F)cc3s1)n2C [Example 134, 1-Methyl-2-(6-trifluoromethyl-benzothiazol-2-ylamino)-1H-benzimidazole-5-carboxylic acid dimethylcarbamoylmethyl-amide] | 54.5 |
| CN(C)C(=O)CCNC(=O)c1ccc2c(c1)nc(Nc1nc3ccc(OC(F)(F)F)cc3s1)n2C [Example 135, 1-Methyl-2-(6-trifluoromethoxy-benzothiazol-2-ylamino)-1H-benzimidazole-5-carboxylic acid (2-dimethylcarbamoyl-ethyl)-amide] | 49.6 |
| Cn1c(Nc2nc3ccc(OC(F)(F)F)cc3s2)nc2cc(C(=O)NCCC(=O)OC(C)(C)C)ccc21 [Example 136, 3-{[1-Methyl-2-(6-trifluoromethoxy-benzothiazol-2-ylamino)-1H-benzimidazole-5-carbonyl]-amino}-propionic acid tert-butyl ester] | 5.7 |
| CN1CCN(C(=O)CNC(=O)c2ccc3c(c2)nc(Nc2nc4ccc(OC(F)(F)F)cc4s2)n3C)CC1 [Example 137, 1-Methyl-2-(6-trifluoromethoxy-benzothiazol-2-ylamino)-1H-benzimidazole-5-carboxylic acid [2-(4-methyl-piperazin-1-yl)-2-oxo-ethyl]-amide] | 6 |
| Cn1c(Nc2nc3ccc(OC(F)(F)F)cc3s2)nc2cc(C(=O)NCC(=O)N3CCOCC3)ccc21 [Example 138, 1-Methyl-2-(6-trifluoromethoxy-benzothiazol-2-ylamino)-1H-benzimidazole-5-carboxylic acid (2-morpholin-4-yl-2-oxo-ethyl)-amide] | 11 |
| CNC(=O)CNC(=O)c1ccc2c(c1)nc(Nc1nc3ccc(OC(F)(F)F)cc3s1)n2C [Example 139, 1-Methyl-2-(6-trifluoromethoxy-benzothiazol-2-ylamino)-1H-benzimidazole-5-carboxylic acid methylcarbamoylmethyl-amide] | 18.8 |
| CCN(CC)C(=O)CNC(=O)c1ccc2c(c1)nc(Nc1nc3ccc(OC(F)(F)F)cc3s1)n2C [Example 140, 1-Methyl-2-(6-trifluoromethoxy-benzothiazol-2-ylamino)-1H-benzimidazole-5-carboxylic acid diethylcarbamoylmethyl-amide] | 19.3 |
| Cn1c(Nc2nc3ccc(OC(F)(F)F)cc3s2)nc2cc(C(=O)NCC(=O)N3CCCC3)ccc21 [Example 141, 1-Methyl-2-(6-trifluoromethoxy-benzothiazol-2-ylamino)-1H-benzimidazole-5-carboxylic acid (2-oxo-2-pyrrolidin-1-yl-ethyl)-amide] | 23.1 |
| Cn1c(Nc2nc3ccc(OC(F)(F)F)cc3s2)nc2cc(C(=O)NCC(=O)N3CCN(C(=O)OC(C)(C)C)CC3)ccc21 [Example 142, 4-(2-{[1-Methyl-2-(6-trifluoromethoxy-benzothiazol-2-ylamino)-1H-benzimidazole-5-carbonyl]-amino}-acetyl)-piperazine-1-carboxylic acid tert-butyl ester] | 15.2 |
| COC(=O)[C@H](C)NC(=O)c1ccc2c(c1)nc(Nc1nc3ccc(OC(F)(F)F)cc3s1)n2C [Example 143, (S)-2-{[1-Methyl-2-(6-trifluoromethoxy-benzothiazol-2-ylamino)-1H-benzoimidazole-5-carbonyl]-amino}-propionic acid methyl ester] | 22.4 |
| CCOC(=O)C1(NC(=O)c2ccc3c(c2)nc(Nc2nc4ccc(OC(F)(F)F)cc4s2)n3C)CC1 [Example 144, 1-{[1-Methyl-2-(6-trifluoromethoxy-benzothiazol-2-ylamino)-1H-benzimidazole-5-carbonyl]-amino}-cyclopropanecarboxylic acid ethyl ester] | 7.3 |
| COC(=O)C(C)(C)NC(=O)c1ccc2c(c1)nc(Nc1nc3ccc(OC(F)(F)F)cc3s1)n2C [Example 145, 2-Methyl-2-{[1-methyl-2-(6-trifluoromethoxy-benzothiazol-2-ylamino)-1H-benzimidazole-5-carbonyl]-amino}-propionic acid methyl ester] | 7.1 |
| C[C@H](NC(=O)c1ccc2c(c1)nc(Nc1nc3ccc(OC(F)(F)F)cc3s1)n2C)C(=O)O [Example 146, (S)-2-{[1-Methyl-2-(6-trifluoromethoxy-benzothiazol-2-ylamino)-1H-benzoimidazole-5-carbonyl]-amino}-propionic acid] | 3.7 |
| Cn1c(Nc2nc3ccc(OC(F)(F)F)cc3s2)nc2cc(C(=O)NC3(C(=O)O)CC3)ccc21 [Example 147, 1-{[1-Methyl-2-(6-trifluoromethoxy-benzothiazol-2-ylamino)-1H-benzimidazole-5-carbonyl]-amino}-cyclopropanecarboxylic acid] | 1.8 |
| Cn1c(Nc2nc3ccc(OC(F)(F)F)cc3s2)nc2cc(C(=O)NC(C)(C)C(=O)O)ccc21 [Example 148, 2-Methyl-2-{[1-methyl-2-(6-trifluoromethoxy-benzothiazol-2-ylamino)-1H-benzimidazole-5-carbonyl]-amino}-propionic acid] | 12 |
| C[C@H](NC(=O)c1ccc2c(c1)nc(Nc1nc3ccc(OC(F)(F)F)cc3s1)n2C)C(=O)N(C)C [Example 149, 1-Methyl-2-(6-trifluoromethoxy-benzothiazol-2-ylamino)-1H-benzoimidazole-5-carboxylic acid ((S)-1-dimethylcarbamoyl-ethyl)-amide] | 38.7 |
| CN(C)C(=O)C1(NC(=O)c2ccc3c(c2)nc(Nc2nc4ccc(OC(F)(F)F)cc4s2)n3C)CC1 [Example 150, 1-Methyl-2-(6-trifluoromethoxy-benzothiazol-2-ylamino)-1H-benzimidazole-5-carboxylic acid (1-dimethylcarbamoyl-cyclopropyl)-amide] | 41.6 |
| CN(C)C(=O)C(C)(C)NC(=O)c1ccc2c(c1)nc(Nc1nc3ccc(OC(F)(F)F)cc3s1)n2C [Example 151, 1-Methyl-2-(6-trifluoromethoxy-benzothiazol-2-ylamino)-1H-benzimidazole-5-carboxylic acid (1-dimethylcarbamoyl-1-methyl-ethyl)-amide] | 41.3 |
| Cn1c(Nc2nc3ccc(OC(F)(F)F)cc3s2)nc2cc(C(=O)NCC(=O)N3CCNCC3)ccc21 [Example 152, 1-Methyl-2-(6-trifluoromethoxy-benzothiazol-2-ylamino)-1H-benzimidazole-5-carboxylic acid (2-oxo-2-piperazin-1-yl-ethyl)-amide hydrochloride] | 15 |
| CCn1c(Nc2nc3ccc(OC(F)(F)F)cc3s2)nc2cc(C(=O)OC)ccc21 [Example 153, 1-Ethyl-2-(6-trifluoromethoxy-benzothiazol-2-ylamino)-1H-benzoimidazole-5-carboxylic acid methyl ester] | 4 |
